Type in all cases: cell-based
One experiment relates to IL-6. The experiment is described as follows: Whole bovine blood assay, LPS-induced IL-6. The following applies: fresh whole bovine blood, LPS stimulant; top drug concentration 250 μM.
The subject of a further experiment is TNF-α. The experiment is described as follows: Whole bovine blood assay, LPS-induced TNF-α. The following applies: fresh whole bovine blood, LPS stimulant; top drug concentration 250 μM. The procedure, abridged:
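Fresh heparinized bovine whole blood was preincubated with compound 4 h at 37 °C, then stimulated with LPS (final 1 μg/mL) for 18 h at 37 °C. Plasma TNF-α was quantified by MSD U-Plex chemiluminescent immunoassay, normalized to total protein (BCA), and IC50 taken for LPS-induced TNF-α inhibition.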

The next experiment relates to IL-1β. The experiment is described as follows: Whole bovine blood assay, LPS-induced IL-1β (inhibition / overstimulation). The conditions noted are these: drug concentration giving overstimulation (OS) of LPS-induced IL-1β, top concentration 250 μM. A digest of the protocol: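 Fresh heparinized bovine whole blood was preincubated with compound at varying concentrations for 4 h at 37 °C, then stimulated with 1 μg/mL LPS for 18 h. Plasma IL-1β was measured by MSD chemiluminescent immunoassay and normalized to total protein. Values cover inhibition and concentration-dependent overstimulation.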

From patent US20250236616A1, “IMMUNOMODULATING AZALIDES” (Zoetis Services LLC, priority 2021, published 2025) come the findings set out here.

As usually defined, the IC50 is the concentration at which inhibition is half-maximal. Read a low IC50 as greater potency. One may read the minimal effective concentration as the smallest amount tested that counted as effective. Low values mean an effect from little substance, high ones a need for much substance. Regarding `CC[C@H]1OC(=O)[C@H](C)[C@@H](O[C@H]2C[C@@](C)(OC)[C@](O)(CNCCN(C)C)[C@H](C)O2)[C@H](C)[C@@H](O[C@@H]2O[C@H](C)C[C@H](N(C)S(=O)(=O)c3ccc(Cl)cc3)[C@H]2O)[C@](C)(O)C[C@@H](C)CN[C@H](C)[C@@H](O)[C@]1(C)O` [Example B-35], the IC50 is 54 µM in the experiment on IL-6 and greater than 250 µM in the experiment on TNF-α. The same compound returned a minimal effective concentration in the experiment on IL-1β of 16 µM.

`CC[C@H]1OC(=O)[C@H](C)[C@@H](O[C@H]2C[C@@](C)(OC)[C@](O)(CNC)[C@H](C)O2)[C@H](C)[C@@H](O[C@@H]2O[C@H](C)C[C@H](N(C)S(=O)(=O)c3ccc(Cl)cc3)[C@H]2O)[C@](C)(O)C[C@@H](C)CN[C@H](C)[C@@H](O)[C@]1(C)O` [Example B-38]: the IC50 with IL-6 was 22 µM; with TNF-α, 32 µM. The same compound had a minimal effective concentration with IL-1β of 5 µM.

Take `CCCNC[C@]1(O)[C@H](C)O[C@@H](O[C@H]2[C@H](C)[C@@H](O[C@@H]3O[C@H](C)C[C@H](N(C)S(=O)(=O)N4CCc5ccccc5C4)[C@H]3O)[C@](C)(O)C[C@@H](C)CN[C@H](C)[C@@H](O)[C@](C)(O)[C@@H](CC)OC(=O)[C@@H]2C)C[C@@]1(C)OC` [Example B-42]: the IC50 with IL-6 amounted to 8 µM; in the experiment on TNF-α, 13 µM. The same compound registered a minimal effective concentration in the experiment with IL-1β of 2 µM.

As to `CCCNC[C@]1(O)[C@H](C)O[C@@H](O[C@H]2[C@H](C)[C@@H](O[C@@H]3O[C@H](C)C[C@H](N(C)S(=O)(=O)N(C)Cc4ccccc4)[C@H]3O)[C@](C)(O)C[C@@H](C)CN[C@H](C)[C@@H](O)[C@](C)(O)[C@@H](CC)OC(=O)[C@@H]2C)C[C@@]1(C)OC` [Example B-44], the results for the concentration for half-maximal inhibition (IC50) in the experiment with IL-6 and in the experiment with TNF-α were 9 µM and 13 µM, respectively. Further, the minimal effective concentration in the experiment on IL-1β was determined as 3 µM.

Consider `CCCNC[C@]1(O)[C@H](C)O[C@@H](O[C@H]2[C@H](C)[C@@H](O[C@@H]3O[C@H](C)C[C@H](N(C)S(=O)(=O)N4Cc5ccccc5C4)[C@H]3O)[C@](C)(O)C[C@@H](C)CN[C@H](C)[C@@H](O)[C@](C)(O)[C@@H](CC)OC(=O)[C@@H]2C)C[C@@]1(C)OC` [Example B-45], for which the IC50 with IL-6 came to 8 µM; with TNF-α, 16 µM. In the experiment on IL-1β, this compound showed a minimal effective concentration of 3 µM.

As to `CCCNC[C@]1(O)[C@H](C)O[C@@H](O[C@H]2[C@H](C)[C@@H](O[C@@H]3O[C@H](C)C[C@H](N(C)S(=O)(=O)N4CCCCC4)[C@H]3O)[C@](C)(O)C[C@@H](C)CN[C@H](C)[C@@H](O)[C@](C)(O)[C@@H](CC)OC(=O)[C@@H]2C)C[C@@]1(C)OC` [Example B-47], the IC50 in the experiment with IL-6 amounted to 24 µM; in the experiment with TNF-α, 13 µM. Also, in the experiment with IL-1β, the minimal effective concentration amounted to 40 µM.

Take `CCCNC[C@]1(O)[C@H](C)O[C@@H](O[C@H]2[C@H](C)[C@@H](O[C@@H]3O[C@H](C)C[C@H](N(C)S(=O)(=O)N(C)C)[C@H]3O)[C@](C)(O)C[C@@H](C)CN[C@H](C)[C@@H](O)[C@](C)(O)[C@@H](CC)OC(=O)[C@@H]2C)C[C@@]1(C)OC` [Example B-51]: the IC50 came out at 62 µM with IL-6 and 38 µM in the experiment with TNF-α. This compound showed a minimal effective concentration with IL-1β of 97 µM.

For `CCCNC[C@]1(O)[C@H](C)O[C@@H](O[C@H]2[C@H](C)[C@@H](O[C@@H]3O[C@H](C)C[C@H](N(C)S(=O)(=O)Nc4ccc(F)cc4)[C@H]3O)[C@](C)(O)C[C@@H](C)CN[C@H](C)[C@@H](O)[C@](C)(O)[C@@H](CC)OC(=O)[C@@H]2C)C[C@@]1(C)OC` [Example B-53], the results for the IC50 in the experiment on IL-6 and in the experiment on TNF-α were 26 µM and 85 µM, respectively. This compound displayed a minimal effective concentration in the experiment on IL-1β of 16 µM.

`CCCNC[C@]1(O)[C@H](C)O[C@@H](O[C@H]2[C@H](C)[C@@H](O[C@@H]3O[C@H](C)C[C@H](N(C)S(=O)(=O)NC)[C@H]3O)[C@](C)(O)C[C@@H](C)CN[C@H](C)[C@@H](O)[C@](C)(O)[C@@H](CC)OC(=O)[C@@H]2C)C[C@@]1(C)OC` [Example B-55]: the results for the IC50 with IL-6 and with TNF-α were greater than 32 µM and greater than 250 µM, respectively. The compound also displayed a minimal effective concentration in the experiment with IL-1β of 26 µM.

For `CCCNC[C@]1(O)[C@H](C)O[C@@H](O[C@H]2[C@H](C)[C@@H](O[C@@H]3O[C@H](C)C[C@H](N(C)S(=O)(=O)NC4CCCCC4)[C@H]3O)[C@](C)(O)C[C@@H](C)CN[C@H](C)[C@@H](O)[C@](C)(O)[C@@H](CC)OC(=O)[C@@H]2C)C[C@@]1(C)OC` [Example B-56], the IC50 came to 26 µM in the experiment with IL-6 and 86 µM with TNF-α. Besides, in the experiment on IL-1β, the minimal effective concentration was 16 µM.

As to `CCCNC[C@]1(O)[C@H](C)O[C@@H](O[C@H]2[C@H](C)[C@@H](O[C@@H]3O[C@H](C)C[C@H](N(C)S(=O)(=O)N(C)c4ccccc4)[C@H]3O)[C@](C)(O)C[C@@H](C)CN[C@H](C)[C@@H](O)[C@](C)(O)[C@@H](CC)OC(=O)[C@@H]2C)C[C@@]1(C)OC` [Example B-57], the half-maximal inhibitory concentration (IC50) in the experiment on IL-6 was 8 µM; with TNF-α it was 5 µM. Also, the minimal effective concentration in the experiment on IL-1β turned out to be 16 µM.

For the compound `CC[C@H]1OC(=O)[C@H](C)[C@@H](O[C@H]2C[C@@](C)(OC)[C@](O)(CNCCN3CCCC3)[C@H](C)O2)[C@H](C)[C@@H](O[C@@H]2O[C@H](C)C[C@H](N(C)S(=O)(=O)Nc3ccc(C(F)(F)F)cc3)[C@H]2O)[C@](C)(O)C[C@@H](C)CN[C@H](C)[C@@H](O)[C@]1(C)O` [Example B-68], the IC50 with IL-6 was found to be 25 µM; in the experiment with TNF-α, 5 µM. The compound further had a minimal effective concentration with IL-1β of 16 µM.

On to `CC[C@H]1OC(=O)[C@H](C)[C@@H](O[C@H]2C[C@@](C)(OC)[C@](O)(CNC)[C@H](C)O2)[C@H](C)[C@@H](O[C@@H]2O[C@H](C)C[C@H](N(C)S(=O)(=O)Nc3ccc(C(F)(F)F)cc3)[C@H]2O)[C@](C)(O)C[C@@H](C)CN[C@H](C)[C@@H](O)[C@]1(C)O` [Example B-76], for which the IC50 with IL-6 and with TNF-α was greater than 250 µM in each case. Also, the minimal effective concentration with IL-1β is greater than 250 µM.

`CC[C@H]1OC(=O)[C@H](C)[C@@H](O[C@H]2C[C@@](C)(OC)[C@](O)(CNCCN(C)C)[C@H](C)O2)[C@H](C)[C@@H](O[C@@H]2O[C@H](C)C[C@H](N(C)S(=O)(=O)Nc3ccc(C(F)(F)F)cc3)[C@H]2O)[C@](C)(O)C[C@@H](C)CN[C@H](C)[C@@H](O)[C@]1(C)O` [Example B-82]: the IC50 is greater than 250 µM in the experiment on IL-6 and 71 µM in the experiment on TNF-α. This compound registered a minimal effective concentration in the experiment on IL-1β greater than 250 µM.

Take `CC[C@H]1OC(=O)[C@H](C)[C@@H](O[C@H]2C[C@@](C)(OC)[C@](O)(CNCCCNC(C)=O)[C@H](C)O2)[C@H](C)[C@@H](O[C@@H]2O[C@H](C)C[C@H](N(C)S(=O)(=O)Nc3ccc(C(F)(F)F)cc3)[C@H]2O)[C@](C)(O)C[C@@H](C)CN[C@H](C)[C@@H](O)[C@]1(C)O` [Example B-88]: the concentration for half-maximal inhibition (IC50) in the experiment on IL-6 came to 40 µM; with TNF-α, 22 µM. In the experiment with IL-1β, this compound came in with a minimal effective concentration of 14 µM.

Turning to `CC[C@H]1OC(=O)[C@H](C)[C@@H](O[C@H]2C[C@@](C)(OC)[C@](O)(CNCCCF)[C@H](C)O2)[C@H](C)[C@@H](O[C@@H]2O[C@H](C)C[C@H](N(C)S(=O)(=O)Nc3ccc(C(F)(F)F)cc3)[C@H]2O)[C@](C)(O)C[C@@H](C)CN[C@H](C)[C@@H](O)[C@]1(C)O` [Example B-91], the concentration for half-maximal inhibition (IC50) worked out at 101 µM in the experiment on IL-6 and 34 µM with TNF-α. The compound further registered a minimal effective concentration in the experiment on IL-1β of 2 µM.

On to `CCCNC[C@]1(O)[C@H](C)O[C@@H](O[C@H]2[C@H](C)[C@@H](O[C@@H]3O[C@H](C)C[C@H](N(C)S(=O)(=O)c4ccc(Br)cc4)[C@H]3Oc3ccc(OC)cc3)[C@](C)(O)C[C@@H](C)CN[C@H](C)[C@@H](O)[C@](C)(O)[C@@H](CC)OC(=O)[C@@H]2C)C[C@@]1(C)OC` [Example B-104], for which the concentration for half-maximal inhibition (IC50) in the experiment with IL-6 came to 7 µM; with TNF-α, 15 µM. In the experiment with IL-1β, this compound had a minimal effective concentration of 3 µM.

Consider `CCCNC[C@]1(O)[C@H](C)O[C@@H](O[C@H]2[C@H](C)[C@@H](O[C@@H]3O[C@H](C)C[C@H](N(C)S(=O)(=O)c4ccc(Cl)cc4)[C@H]3Oc3ccc(F)cc3)[C@](C)(O)C[C@@H](C)CN[C@H](C)[C@@H](O)[C@](C)(O)[C@@H](CC)OC(=O)[C@@H]2C)C[C@@]1(C)OC` [Example B-106], for which the 50% inhibitory concentration (IC50) was 9 µM in the experiment on IL-6 and 7 µM with TNF-α. For the same compound, the minimal effective concentration in the experiment on IL-1β came to 3 µM.

Regarding `CCCNC[C@]1(O)[C@H](C)O[C@@H](O[C@H]2[C@H](C)[C@@H](O[C@@H]3O[C@H](C)C[C@H](N(C)S(=O)(=O)c4ccc(F)cc4)[C@H]3Oc3ccc(F)cc3)[C@](C)(O)C[C@@H](C)CN[C@H](C)[C@@H](O)[C@](C)(O)[C@@H](CC)OC(=O)[C@@H]2C)C[C@@]1(C)OC` [Example B-108], the results for the IC50 in the experiment with IL-6 and with TNF-α were 10 µM and 5 µM, respectively. In the experiment on IL-1β, this compound yielded a minimal effective concentration of 6 µM.

For the compound `CCCNC[C@]1(O)[C@H](C)O[C@@H](O[C@H]2[C@H](C)[C@@H](O[C@@H]3O[C@H](C)C[C@H](N(C)S(=O)(=O)c4ccccc4)[C@H]3Oc3ccc(F)cc3)[C@](C)(O)C[C@@H](C)CN[C@H](C)[C@@H](O)[C@](C)(O)[C@@H](CC)OC(=O)[C@@H]2C)C[C@@]1(C)OC` [Example B-109], the IC50 in the experiment on IL-6 came out at 10 µM; with TNF-α, 9 µM. The same compound returned a minimal effective concentration in the experiment on IL-1β of 3 µM.

As for `CCCNC[C@]1(O)[C@H](C)O[C@@H](O[C@H]2[C@H](C)[C@@H](O[C@@H]3O[C@H](C)C[C@H](N(C)S(=O)(=O)c4nccn4C)[C@H]3Oc3c(C)cccc3F)[C@](C)(O)C[C@@H](C)CN[C@H](C)[C@@H](O)[C@](C)(O)[C@@H](CC)OC(=O)[C@@H]2C)C[C@@]1(C)OC` [Example B-110], the IC50 in the experiment on IL-6 worked out at 75 µM; in the experiment on TNF-α it was 154 µM. For the same compound, the minimal effective concentration with IL-1β was determined as 18 µM.
